Data from publication PMC7582725, “Suppression of hTAS2R16 Signaling by Umami Substances” (International Journal of Molecular Sciences, 2020).
Changes are numbered by the printed parent chain. “And” between values parts separate entries of the source, which are not always exact repeats. Equal entries are not always repeated. Structures can show the parent of a compound that is named as a salt. Where two headings read alike, the source gives them in different places. Blank lines part the entries; values can stand above or below the compound they belong to. Where a SMILES comes first, the peptide text is derived from it.

Assays:
hTAS2R16 P44T = molecular target: T1, hTAS2R16 P44T (Homo sapiens, UniProt Q9NYV7, P44T); assay: Cellular Ca2+ response, cell-based assay in HEK293T cells expressing probenecid-insensitive mutant hTAS2R16 P44T
T1 construct: expressed in transfected cells; host or cells: HEK293T
T1 sequence (Q9NYV7 1-291 P44T): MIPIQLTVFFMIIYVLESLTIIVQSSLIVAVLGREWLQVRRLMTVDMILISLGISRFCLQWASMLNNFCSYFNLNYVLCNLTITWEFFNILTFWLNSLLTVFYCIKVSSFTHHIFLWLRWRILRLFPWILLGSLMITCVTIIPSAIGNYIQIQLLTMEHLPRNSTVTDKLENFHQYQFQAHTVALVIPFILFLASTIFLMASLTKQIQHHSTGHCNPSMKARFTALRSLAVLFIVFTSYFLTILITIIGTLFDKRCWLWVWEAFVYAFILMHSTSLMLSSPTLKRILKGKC
Experimental: (§1) HEK293T cells were purchased from American Type Culture Collection (ATCC; Manassas, VA, USA) and cultured as described previously. The plasmids hTAS2R16 and G16αgust44 were constructed as described previously. G16αgust44 and hTAS2R16 were cloned into a cytomegalovirus promoter-based vector and expressed constitutively. Point mutants of N96T and P44T on hTAS2R16 clone and DNA sequencings were performed by Macrogen (Geumcheon-gu, Seoul, Korea). The hTAS2R16 or point mutant expression plasmid was co-transfected with G16αgust44 expression plasmid (4:1) into HEK293T cells using Lipofectamine 2000 (Invitrogen, Carlsbad, CA, USA).
(§2) The umami substances-induced changes in the cytosolic Ca^2+ concentration were measured using a FlexStation III microplate reader (Molecular Devices, Sunnyvale, CA, USA). HEK293T cells transfected with hTAS2R16 were seeded onto 96-well black-wall CellBind surface plates (Corning, NY, USA) for 18–24 h before use. […] The cells were incubated in the dark for 30 min at 37 °C, and then for 15 min at 27 °C in assay buffer consisting of Calcium-4 (FLIPR Calcium 4 Assay Kit, Molecular Devices) and probenecid or the umami compounds. Following treatment, the fluorescence intensity (excitation, 486 nm; emission, 525 nm) of the cell was measured. The relative changes in cell Ca^2+ were plotted as ΔF/F0 on the y-axis, where ΔF is the change in Calcium-4 fluorescence intensity at each time point and F0 is the fluorescence intensity before treatment. The relative response induced by 10 mM salicin was assigned a value of 100.

hTAS2R16 [1] = molecular target: T2, hTAS2R16 (Homo sapiens, UniProt Q9NYV7); assay: Cellular Ca2+ response, cell-based assay (Calcium-4, FlexStation III) in HEK293T cells co-expressing wild-type hTAS2R16 and G16αgust44; conditions: for synergistic effect with IMP on suppression of salicin response: 10 mM salicin, graded IMP below or at 10 mM; for mechanism of antagonism at hTAS2R16: from salicin concentration–response curves at graded antagonist concentrations
T2 construct: expressed in transfected cells; host or cells: HEK293T
T2 sequence (Q9NYV7 1-291): T1 sequence (Q9NYV7 1-291 P44T) with T44P
Experimental: as §1, §2

hTAS2R16 N96T = molecular target: T3, hTAS2R16 N96T (Homo sapiens, UniProt Q9NYV7, N96T); assay: Cellular Ca2+ response, cell-based assay in HEK293T cells expressing probenecid-insensitive mutant hTAS2R16 N96T
T3 construct: expressed in transfected cells; host or cells: HEK293T
T3 sequence (Q9NYV7 1-291 N96T): T1 sequence (Q9NYV7 1-291 P44T) with T44P, N96T
Experimental: as §1, §2

hTAS2R16 [2] = molecular target: T2, hTAS2R16; assay: Ca2+ response of hTAS2R16-expressing HEK293T cells to bitter ligands in absence and presence of umami substances (Figure 1; fura-2 F340/F380 imaging / cell-based assay); conditions: for Ca2+ response of cells expressing TAS2R16 on stimulation with ligand: Figure 1D,E; for inhibition of Ca2+ response to arbutin: 5 mM arbutin; for inhibition of Ca2+ response to arbutin / inhibition of Ca2+ response to phenyl β-D-glucopyranoside: MSG 80 mM, IMP 20 mM, L-theanine 80 mM; for inhibition of Ca2+ response to arbutin / reduction of intracellular Ca2+ influx evoked by salicin / inhibition of Ca2+ response to phenyl β-D-glucopyranoside: Glu-Glu 6 mM, Gly-Gly 6 mM; for reduction of intracellular Ca2+ influx evoked by salicin: 10 mM salicin, MSG 10 and 80 mM, IMP 10 and 20 mM, L-theanine 10 and 80 mM, probenecid 0.1 and 0.3 mM
Experimental: We first verified if non-peptide umami substances affect the downstream signaling mechanism, such as changes in intracellular Ca^2+ of the human bitter taste receptor. […] The increase in fluorescence intensity ratio (F340/F380) with 10 mM salicin was expressed as 100. […] In addition to salicin, hTAS2R16 also recognizes bitter sugars such as phenyl β-D-glucopyranoside and arbutin, a glycosylated hydroquinone extracted from the bearberry plant in the genus Arctostaphylos.
(A) Chemical structures of tested compounds. Summarized data (B) and representative traces (C) showing responses of HEK293T cells co-expressing hTAS2R16 and Gα16gust44 to 10 mM salicin in the absence and presence of umami substances in a cell-based assay. (D,E) Representative ratiometric images of fura-2-loaded hTAS2R16-expressing cells in response to the other ligands, 5 mM arbutin (D) or phenyl β-D-glucopyranoside (E), in the presence of umami substances. The data were normalized as percentages to the maximal signal obtained with the ligands. The color scale indicates the F340/F380 ratio. Scale bar: 11.04 μm. Data are presented as means ± standard error of the mean (SEM) of at least three separate experiments. * p < 0.05, ** p < 0.01, and *** p < 0.001 vs. the 0 mM sample group by Student’s t-test.
as §2, with “Following treatment, the fluorescence intensity (excitation, 486 nm; emission, 525 nm) of the cell was measured.” left out
Cells were seeded onto 96-well black-wall imaging plates (BD Falcon Labware) for 18–26 h prior to their use in an experiment. […] The cells were rinsed with the buffer, incubated in probenecid or sample for 30 min, and then treated with solution containing the ligand. The Fura-2AM-induced fluorescence intensity (excitation at 340 and 380 nm) was measured at emission wavelength of 510 nm using a computer-controlled filter changer (Lambda DG4; Sutter, San Rafael, CA, USA), an Andor Luca CCD camera (Andor Technology, Belfast, UK), and an inverted fluorescence microscope (IX-71; Olympus, Tokyo, Japan). Images were obtained at 3-s intervals and analyzed using MetaFluor software (Molecular Devices, Sunnyvale, CA, USA).

umami taste [3] = conditions: cited from earlier work
umami taste [4] = assay: Human sensory evaluation of umami taste (literature); format: in vivo; conditions: from cited thresholds
[5] = Table 3, pretreatment with sample 80 mM
[6] = IC50 in the presence of 10 mM salicin, Table 2, + IMP 0 mM, means ± SEM
[7] = IC50 of umami substances in the presence of 10 mM salicin, Figure 2B, pretreatment with sample, fixed 10 mM salicin, means ± SEM
[8] = Table 1, pretreatment with sample 10 mM
[9] = Table 1, pretreatment with sample 30 mM
[10] = Table 1, pretreatment with sample 80 mM
[11] = Table 1, pretreatment with sample 100 mM

EC50 (hTAS2R16 P44T; Table 3, sample 0 mM, read-out: EC50 of salicin, P44T): 690 µM and 750 µM and 640 µM and 620 µM and 680 µM
intracellular Ca2+ response induced by ligand, P44T mutant (hTAS2R16 P44T; salicin 0.003–30 mM): induced intracellular Ca^2+ response
Maximal Response of salicin (hTAS2R16 [1]; Table 1, salicin 0–30 mM, sample 0 mM): 0.51 ΔF/F0 and 0.54 ΔF/F0 and 0.56 ΔF/F0
Maximal Response of salicin, WT (hTAS2R16 [1]; Table 3, sample 0 mM): 0.54 ΔF/F0 and 0.56 ΔF/F0 and 0.51 ΔF/F0
EC50 (hTAS2R16 [1]; Table 3, sample 0 mM, read-out: EC50 of salicin, WT): 960 µM and 900 µM and 1040 µM and 1070 µM
intracellular Ca2+ response induced by ligand, WT receptor (hTAS2R16 [1]; salicin 0.003–30 mM): induced intracellular Ca^2+ response
intracellular Ca2+ response induced by ligand, N96T mutant (hTAS2R16 N96T; salicin 0.003–30 mM): induced intracellular Ca^2+ response
Compound: OCc1ccccc1O[C@@H]1O[C@H](CO)[C@@H](O)[C@H](O)[C@H]1O [Salicin]
Maximal Response of salicin, P44T (hTAS2R16 P44T; Table 3, sample 0 mM): 0.61 ΔF/F0 and 0.59 ΔF/F0 and 0.56 ΔF/F0 and 0.62 ΔF/F0
EC50 (hTAS2R16 [1]; Table 1, salicin 0–30 mM, sample 0 mM, means ± SEM, read-out: EC50 of salicin): 1.04 mM (2×) and 920 µM and 890 µM and 900 µM
Maximal Response of salicin, N96T (hTAS2R16 N96T; Table 3, sample 0 mM): 0.66 ΔF/F0 and 0.63 ΔF/F0 and 0.68 ΔF/F0 and 0.61 ΔF/F0
EC50 (hTAS2R16 N96T; Table 3, sample 0 mM, read-out: EC50 of salicin, N96T): 200 µM (2×) and 230 µM and 250 µM and 180 µM

Ca2+ response of cells expressing TAS2R16 on stimulation with ligand (hTAS2R16 [2]): increase in Ca^2+
Compound: OC[C@H]1O[C@@H](Oc2ccc(O)cc2)[C@H](O)[C@@H](O)[C@@H]1O [arbutin]

Maximal Response of salicin, P44T (hTAS2R16 P44T; [5]): 0.56 ΔF/F0
IC50 (hTAS2R16 [1]; [6]): 77330 ± 50 µM
IC50 (hTAS2R16 [1]; [7]): 62000 µM and 61700 µM
Maximal Response of salicin (hTAS2R16 [1]; [8]): 0.53 ΔF/F0
Maximal Response of salicin (hTAS2R16 [1]; [9]): 0.50 ΔF/F0
Maximal Response of salicin (hTAS2R16 [1]; [10]): 0.43 ΔF/F0
Maximal Response of salicin (hTAS2R16 [1]; [11]): 0.31 ΔF/F0
Maximal Response of salicin, WT (hTAS2R16 [1]; [5]): 0.43 ΔF/F0
mechanism of antagonism at hTAS2R16 (hTAS2R16 [1]): partial insurmountable antagonists
attenuation of salicin response by pretreatment, WT receptor (hTAS2R16 [1]; salicin 0.003–30 mM, probenecid 0.3 mM, L-theanine 80 mM): significantly attenuated
inhibition of Ca2+ response to arbutin (hTAS2R16 [2]): significantly inhibited
reduction of intracellular Ca2+ influx evoked by salicin (hTAS2R16 [2]): concentration-dependent reduction
inhibition of Ca2+ response to phenyl β-D-glucopyranoside (hTAS2R16 [2]): significantly inhibited
Maximal Response of salicin, N96T (hTAS2R16 N96T; [5]): 0.66 ΔF/F0
Compound: CCNC(=O)CC[C@H](N)C(=O)O [L-Theanine, γ-glutamylethylamide]
attenuation of salicin response by pretreatment, P44T mutant (hTAS2R16 P44T; salicin 0.003–30 mM, probenecid 0.3 mM, MSG 80 mM, L-theanine 80 mM): not in cells expressing the two N96T and P44T mutant receptors
synergistic effect with IMP on suppression of salicin response (hTAS2R16 [1]): produce similar synergistic effects with IMP
detection threshold (umami taste [3]): 25 mM
detection threshold, times lower than that of MSG (umami taste [4]; L-theanine vs MSG): roughly 36 times
attenuation of salicin response by pretreatment, N96T mutant (hTAS2R16 N96T; salicin 0.003–30 mM, probenecid 0.3 mM, Glu-Glu 6 mM, L-theanine 80 mM): not in cells expressing the two N96T and P44T mutant receptors

inhibition of Ca2+ response to arbutin (hTAS2R16 [2]): not
reduction of intracellular Ca2+ influx evoked by salicin (hTAS2R16 [2]): not
inhibition of Ca2+ response to phenyl β-D-glucopyranoside (hTAS2R16 [2]): not
Compound: Gly-Gly

Compound: N[C@@H](CCC(=O)O)C(=O)O [MSG, L-glutamic acid monosodium salt hydrate]
Maximal Response of salicin, P44T (hTAS2R16 P44T; [5]): 0.57 ΔF/F0
synergistic effect with IMP on suppression of salicin response (hTAS2R16 [1]): produce similar synergistic effects with IMP
IC50 (hTAS2R16 [1]; [6]): 64670 ± 40 µM
IC50 (hTAS2R16 [1]; [7]): 51000 µM and 51100 µM
Maximal Response of salicin (hTAS2R16 [1]; [8]): 0.55 ΔF/F0
Maximal Response of salicin (hTAS2R16 [1]; [9]): 0.54 ΔF/F0
Maximal Response of salicin (hTAS2R16 [1]; [10]): 0.49 ΔF/F0
Maximal Response of salicin (hTAS2R16 [1]; [11]): 0.47 ΔF/F0
Maximal Response of salicin, WT (hTAS2R16 [1]; [5]): 0.49 ΔF/F0
mechanism of antagonism at hTAS2R16 (hTAS2R16 [1]): surmountable antagonist
increase of the EC50 of salicin (hTAS2R16 [1]; sample at highest concentration, 100 mM): 8.5 fold
detection threshold (umami taste [3]): 0.7 mM
umami taste intensity (relative) (umami taste [3]; enhancing umami taste intensity, MSG = 1.0): 1.0
umami taste threshold (umami taste [3]; human sensory evaluation studies): 30 mg%
umami taste threshold, times lower than Glu-Glu (umami taste [4]; MSG vs Glu-Glu): around 10 times
inhibition of Ca2+ response to arbutin (hTAS2R16 [2]): significantly inhibited
reduction of intracellular Ca2+ influx evoked by salicin (hTAS2R16 [2]): concentration-dependent reduction
inhibition of Ca2+ response to phenyl β-D-glucopyranoside (hTAS2R16 [2]): significantly inhibited
Maximal Response of salicin, N96T (hTAS2R16 N96T; [5]): 0.65 ΔF/F0

Ca2+ response of cells expressing TAS2R16 on stimulation with ligand (hTAS2R16 [2]): increase in Ca^2+
Compound: OC[C@H]1O[C@@H](Oc2ccccc2)[C@H](O)[C@@H](O)[C@@H]1O [phenyl β-D-glucopyranoside]

IC50 (hTAS2R16 [1]; [6]): 7250 ± 20 µM
IC50 (hTAS2R16 [1]; [7]): 8620 ± 30 µM
Compound: N[C@@H](CCC(=O)O)C(=O)N[C@@H](CCC(=O)O)C(=O)O [Glu-Glu] (H-Glu-Glu-OH)
